Assay results reported in ChEMBL document CHEMBL1139752, “New rifabutin analogs: synthesis and biological activity against Mycobacterium tuberculosis” (2006).
Converted amounts (≈) assume the structure as drawn.

How the values were obtained:
Assay type in all cases: functional
[1] = test system: Mycobacterium tuberculosis; test: Antimycobacterial activity against rifampicin and rifabutin sensitive Mycobacterium tuberculosis
Mycobacterium kansasii = test: Antimycobacterial activity against Mycobacterium kansasii measured as susceptibility at 1 ug/mL
[2] = test system: Mycobacterium tuberculosis; test: Antimycobacterial activity against Mycobacterium tuberculosis H37 Rv ATCC 27294
Mycobacterium avium = test: Antimycobacterial activity against Mycobacterium avium-intracellulare complex measured as susceptibility at 1 ug/mL

SMILES | MIC [1] [µg/mL] | Activity (Mycobacterium kansasii) [%] | MIC [2] [µg/mL] | Activity (Mycobacterium avium)
CCCCN1[C@@H](c2ccccc2)C[C@@]2(C[C@H]1c1ccccc1)N=C1C(=C3NC(=O)/C(C)=C\C=C\[C@H](C)[C@H](O)[C@@H](C)[C@H](O)[C@H](C)[C@H](OC(C)=O)[C@H](C)[C@@H](OC)/C=C/O[C@@]4(C)Oc5c(C)c(O)c(c1c5C4=O)C3=O)N2 | 0.02 (≈ 0.02 µM) | 100 | 0.02 (≈ 0.02 µM) | 40%
COc1ccc([C@@H]2C[C@]3(C[C@H](c4ccc(OC)cc4)N2)N=C2C(=C4NC(=O)/C(C)=C\C=C\[C@H](C)[C@H](O)[C@@H](C)[C@H](O)[C@H](C)[C@H](OC(C)=O)[C@H](C)[C@@H](OC)/C=C/O[C@@]5(C)Oc6c(C)c(O)c(c2c6C5=O)C4=O)N3)cc1 | 0.02 (≈ 0.0199 µM) | 100 | 0.02 (≈ 0.0199 µM) | 60%
CO[C@H]1/C=C/O[C@@]2(C)Oc3c(C)c(O)c4c(c3C2=O)C2=N[C@@]3(C[C@@H](c5ccccc5)N[C@@H](c5ccccc5)C3)NC2=C(NC(=O)/C(C)=C\C=C\[C@H](C)[C@H](O)[C@@H](C)[C@H](O)[C@H](C)[C@H](OC(C)=O)[C@@H]1C)C4=O | 0.02 (≈ 0.0212 µM) | 100 | 0.02 (≈ 0.0212 µM) | 100%
C=CCN1[C@@H](c2ccccc2)C[C@@]2(C[C@H]1c1ccccc1)N=C1C(=C3NC(=O)/C(C)=C\C=C\[C@H](C)[C@H](O)[C@@H](C)[C@H](O)[C@H](C)[C@H](OC(C)=O)[C@H](C)[C@@H](OC)/C=C/O[C@@]4(C)Oc5c(C)c(O)c(c1c5C4=O)C3=O)N2 | 0.02 (≈ 0.0203 µM) | 100 | 0.02 (≈ 0.0203 µM) | <=40%
CO[C@H]1/C=C/O[C@@]2(C)Oc3c(C)c(O)c4c(c3C2=O)C2=N[C@]3(C[C@@H](c5ccccc5)N[C@@H](c5ccccc5)C3)NC2=C(NC(=O)/C(C)=C\C=C\[C@H](C)[C@H](O)[C@@H](C)[C@H](O)[C@H](C)[C@H](OC(C)=O)[C@@H]1C)C4=O | 0.02 (≈ 0.0212 µM) | 100 | 0.02 (≈ 0.0212 µM) | 100%
CO[C@H]1/C=C/O[C@@]2(C)Oc3c(C)c(O)c4c(c3C2=O)C2=N[C@@]3(C[C@@H](c5ccc(F)cc5)N[C@@H](c5ccc(F)cc5)C3)NC2=C(NC(=O)/C(C)=C\C=C\[C@H](C)[C@H](O)[C@@H](C)[C@H](O)[C@H](C)[C@H](OC(C)=O)[C@@H]1C)C4=O | 0.02 (≈ 0.0204 µM) | 100 | 0.02 (≈ 0.0204 µM) | 100%
C=CCCN1[C@@H](c2ccccc2)C[C@@]2(C[C@H]1c1ccccc1)N=C1C(=C3NC(=O)/C(C)=C\C=C\[C@H](C)[C@H](O)[C@@H](C)[C@H](O)[C@H](C)[C@H](OC(C)=O)[C@H](C)[C@@H](OC)/C=C/O[C@@]4(C)Oc5c(C)c(O)c(c1c5C4=O)C3=O)N2 | 0.02 (≈ 0.0201 µM) | 100 | 0.02 (≈ 0.0201 µM) | 80%
CO[C@H]1/C=C/O[C@@]2(C)Oc3c(C)c(O)c4c(c3C2=O)C2=NC3(CCN(CC(C)C)CC3)NC2=C(NC(=O)/C(C)=C\C=C\[C@H](C)[C@H](O)[C@@H](C)[C@@H](O)[C@@H](C)[C@H](OC(C)=O)[C@@H]1C)C4=O [RIFABUTIN] | 0.02 (≈ 0.0236 µM) | 100 | 0.02 (≈ 0.0236 µM) | 20%
CO[C@H]1/C=C/O[C@@]2(C)Oc3c(C)c(O)c4c(O)c(c(/C=N/N5CCN(C)CC5)c(O)c4c3C2=O)NC(=O)/C(C)=C\C=C\[C@H](C)[C@H](O)[C@@H](C)[C@@H](O)[C@@H](C)[C@H](OC(C)=O)[C@@H]1C [RIFAMPIN] | 0.02 (≈ 0.0243 µM) | 100 | 0.02 (≈ 0.0243 µM) | 0%
